Results from US20220280594A1, “APPLICATION OF POLYPEPTIDE OR DERIVATIVE THEREOF” (CHENGDU HUITAI BIOMEDICINE CO., LTD., priority 2019, published 2022).
Ends that are not written are not given here. PEG = not defined here

Assays:
[1] = system: human non-small cell lung cancer cells (A549); assay: scratch assay, migration of A549 cells; type: cell-based; conditions: A549, 10 μM, 48 hours; control group 75.31 ± 8.19
Experimental: (§1) In the scratch assay, the cell migration rate was negatively correlated with the inhibitory effect of the drug component on tumor cell migration ability. The cell migration inhibition experiment was described as follows: tumor cells were cultured in vitro, cells in logarithmic growth phase were collected and seeded evenly in a 24-well plate at a density of 1-2×10^5 cells/well; the cells were cultured in a cell incubator until a monolayer was formed; a scratch tool was used to make a “-” (straight) scratch on the monolayer of cells; the cells were washed 1-3 times with PBS, and a medium (with 2% fetal bovine serum) containing specific test components was added to the culture. Experimental grouping: PBS control group; polypeptide or derivative thereof treatment group (N1-N54), 10 μM. Three independent parallel wells were set up in each group, and the cells were cultured continuously in a cell incubator for 48 hours. […] At least 3 representative images for each well were taken. ImageJ software was used to count the migration distance of the cells, and the cell migration rate was calculated as: cell migration rate (%)=(width of original scratch−width of current scratch)/width of original scratch×100.
This example was a scratch assay to evaluate the inhibitory effect of the polypeptide or derivative thereof (N1-N54) on the migration ability of human non-small cell lung cancer (A549). The experimental method was as described in Example 2.

[2] = system: human lung cancer cells (A549) subcutaneous xenograft; assay: lung cancer subcutaneous xenograft animal model, intravenous injection; type: in vivo, mice (BALB/c-nu/nu); conditions: intravenous 60 mg/kg once every other day, 20 days; for Weight of tumor (g) (mean ± SD): control 2.53 ± 0.17; for Volume of tumor (mm^3) (mean ± SD): control 3373.26 ± 581.44
Experimental: Experimental animals: 4-6 weeks old female immunodeficiency mice (BALB/c-nu/nu, Beijing Vital River Laboratory Animal Technology Co., Ltd.).
Subcutaneous xenograft animal model. The number of cells inoculated subcutaneously vin mice was about 2×10^6/200 μL. When the volume of the subcutaneous tumor was greater than 100 mm^3, the mice were randomly divided into groups and subjected to treatment. When the mass volume of the tumors in model control group reached 2000 mm^3 or the animal dies, the treatment ended. The animals were dissected, the tumors were taken out, and the weight and volume of the tumors were measured. During the period of the entire experiment, the mice were observed and the body weight was measured every other day.
The method used in the efficacy test on the lung cancer subcutaneous xenograft animal model was as described in Example 5. The lung cancer cells were the human lung cancer cells (A549), and the route of administration was intravenous injection. This example involved a total of 3 experiments to evaluate N1-N15, N16-N30, and N31-N54 respectively. The experimental procedure, route of administration, dosage and frequency of administration, and detection method were all consistent in the three experiments. The experimental groups were model control group and polypeptide or derivative thereof treatment groups (N1-N15, N16-N30, or N31-N54). The drug dosage of the N1-N54 treatment groups was 60 mg/kg, and the treatment time was 20 days.

[3] = system: human pancreatic cancer cells (PANC-1); assay: transwell migration assay, PANC-1 cells; type: cell-based; conditions: PANC-1 transwell migration, 10 μM, 24 hours; control group 360 ± 60
Experimental: The Transwell chamber system was used in the transwell cell migration experiment. The chamber has an upper layer and a lower layer, which are separated by an artificial semipermeable membrane in the middle. Cells that have migrated through the semi-permeable membrane will attach to the lower surface of the semi-permeable membrane. The migration ability is evaluated by counting the number of cells on the lower surface of the semi-permeable membrane. The number of cells that have migrated is negatively correlated with the inhibitory effect of the drug on the migration ability of the tumor cells. Transwell migration assay was performed as follows: tumor cells were cultured in vitro, cells in logarithmic growth phase were collected, and cell suspension was prepared with fresh serum-free medium at a density of 2-3×10^5 cells/mL. Cells were inoculated, 100 μL/well cell suspension (serum-free medium) in the upper chamber and 600 μL/well complete culture medium in the lower chamber. After incubated in 37° C., 5% CO2 incubator for 4-5 hours, serum-free medium (100 μL/well) was added to the control group, and serum-free medium containing polypeptide or derivative thereof (N1-N54) was added to the upper chamber of the treatment group (100 μL/well), the final concentration of the peptide or derivative thereof in the upper chamber was 10 μM. The cells were incubated continuously for 24 hours, and then fixed with methanol and stained with crystal violet. Images were taken under a microscope and the number of migrated cells was counted with ImageJ.
This example was a transwell cell migration experiment to evaluate the inhibitory effect of the polypeptide or derivative thereof (N1-N54) on the migration ability of human pancreatic cancer cells (PANC-1). The experimental method was as described in Example 3.

[4] = system: human liver cancer cells (HepG2); assay: scratch assay, migration of HepG2 cells; type: cell-based; conditions: HepG2, 10 μM, 48 hours; control group 71.01 ± 6.63
Experimental: as §1
This example was a scratch assay to evaluate the inhibitory effect of the polypeptide or derivative thereof (N1-N54) on the migration ability of human liver cancer cells (HepG2). The experimental method was as described in Example 2.

[5] = system: human breast cancer cells (MDA-MB-453); assay: scratch assay, migration of MDA-MB-453 cells; type: cell-based; conditions: MDA-MB-453, 10 μM, 48 hours; control group 32.42 ± 2.04
Experimental: as §1
This example was a scratch assay to evaluate the inhibitory effect of the polypeptide or derivative thereof (N1-N54) on the migration ability of human breast cancer cells (MDA-MB-453). The experimental method was as described in Example 2.

[6] = system: human breast cancer cells (MDA-MB-231); assay: scratch assay, migration of MDA-MB-231 cells; type: cell-based; conditions: MDA-MB-231, 10 μM, 48 hours; control group 36.19 ± 5.15
Experimental: as §1
This example was a scratch assay to evaluate the inhibitory effect of the polypeptide or derivative thereof (N1-N54) on the migration ability of human breast cancer cells (MDA-MB-231). The experimental method was as described in Example 2.

[7] = system: human breast cancer cells (MCF-7); assay: scratch assay, migration of MCF-7 cells; type: cell-based; conditions: MCF-7, 10 μM, 48 hours; control group 30.97 ± 1.79
Experimental: as §1
This example was a scratch assay to evaluate the inhibitory effect of the polypeptide or derivative thereof (N1-N54) on the migration ability of human breast cancer cells (MCF-7). The experimental method was as described in Example 2.

[8] = system: human colon cancer cells (HCT-116); assay: scratch assay, migration of HCT-116 cells; type: cell-based; conditions: HCT-116, 10 μM, 48 hours; control group 47.78 ± 6.07
Experimental: as §1
This example was a scratch assay to evaluate the inhibitory effect of the polypeptide or derivative thereof (N1-N54) on the migration ability of human colon cancer cells (HCT-116). The experimental method was as described in Example 2.

[9] = system: human prostate cancer cells (22RV1); assay: scratch assay, migration of 22RV1 cells; type: cell-based; conditions: 22RV1, 10 μM, 48 hours; control group 25.41 ± 5.01
Experimental: as §1
This example was a scratch assay to evaluate the inhibitory effect of the polypeptide or derivative thereof (N1-N54) on the migration ability of human prostate cancer cells (22RV1). The experimental method was as described in Example 2.

Substance	Migration rate (%) (mean ± SD, P) [1]	Weight of tumor (g) (mean ± SD) [2]	Volume of tumor (mm^3) (mean ± SD) [2]	Number of cells (mean ± SD, P), migrated cells [3]	Migration rate (%) (mean ± SD, P) [4]	Migration rate (%) (mean ± SD, P) [5]	Migration rate (%) (mean ± SD, P) [6]	Migration rate (%) (mean ± SD, P) [7]	Migration rate (%) (mean ± SD, P) [8]	Migration rate (%) (mean ± SD, P) [9]
N38: SEQ ID NO: 1 with one amino acid added at each terminal and PEG modification at the carboxyl terminal (FYRVRFLAKENVTQDAEDNC-{PEG}; reading uncertain)	46.92 ± 4.49,** %	0.71 ± 0.27	927.9 ± 205.31	116 ± 27,***	12.81 ± 7.32,*** %	12.46 ± 2.5,*** %	18.99 ± 3.25,* %	6.93 ± 2.24,** %	5.97 ± 2.44,*** %	7.73 ± 1.58,** %
N20: SEQ ID NO: 1 with addition of one amino acid at the amino terminal and deletion of position 18 (RYRVRFLAKENVTQDAED)	55.77 ± 5.06,* %	0.56 ± 0.18	1072.16 ± 390.44	244 ± 23,*	14.22 ± 6.12,*** %	7.67 ± 1.35,** %	20.18 ± 3.38,* %	13.73 ± 4.97,** %	8.17 ± 1.07,*** %	4.88 ± 1.48,** %
N1: polypeptide with the amino acid sequence set forth in SEQ ID NO: 1 (YRVRFLAKENVTQDAEDN)	18.26 ± 8.77,** %	1.01 ± 0.2	1340.25 ± 319.59	245 ± 27,*	17.42 ± 7.70,*** %	13.05 ± 2.05,** %	21.83 ± 3.73,* %	11.18 ± 2.89,** %	10.27 ± 3.64,*** %	7.26 ± 3.36,** %
N40: SEQ ID NO: 1 with deletion of positions 1-5 and 15-18, PEG at the amino terminal, two amino acids added at the carboxyl terminal ({PEG}-LAKENVTQDRC; reading uncertain)	20.15 ± 8.91,** %	0.98 ± 0.36	997.42 ± 267.79	264 ± 12,*	32.55 ± 4.09,** %	13.88 ± 6.51,** %	21.12 ± 4.15,* %	4.36 ± 1.35,*** %	2.19 ± 1.45,*** %	6.65 ± 2.54,** %
N41: SEQ ID NO: 1 with addition of two amino acids at the amino terminal, deletion of position 18, PEG at the carboxyl terminal (FRYRVRFLAKENVTQDAED-{PEG}; reading uncertain)	56.03 ± 3.75,* %	0.84 ± 0.34	1075.33 ± 350.78	248 ± 22,*	25.59 ± 6.26,*** %	11.5 ± 3.23,*** %	14.75 ± 4.28,** %	5.19 ± 2.94,*** %	5.78 ± 2.76,*** %	7.83 ± 1.84,** %
N6: SEQ ID NO: 1 with deletion of four amino acids at the carboxyl terminal (positions 15-18) (YRVRFLAKENVTQD)	40.67 ± 3.66,** %	0.88 ± 0.19	1361.03 ± 248.72	144 ± 12,***	16.65 ± 6.70,*** %	13.01 ± 3.14,** %	17.42 ± 4.98,* %	15.69 ± 4.09,* %	18.13 ± 2.68,** %	12.31 ± 2.85,* %
N51: SEQ ID NO: 1 with A15R, one amino acid added at each terminal, PEG modification at the amino terminal ({PEG}-FYRVRFLAKENVTQDREDNC; reading uncertain)	53.59 ± 5.62,* %	0.75 ± 0.37	1412.56 ± 599.92	214 ± 17,***	28.61 ± 5.89,** %	10.6 ± 2.33,*** %	14.5 ± 2.68,** %	8.56 ± 4.18,** %	16.11 ± 3.20,** %	5.23 ± 2.42,** %
